This note sets out measurements from US20120101083A1, “S1P1 AGONISTS COMPRISING A BICYCLIC N-CONTAINING RING” (GLAXO GROUP LIMITED, priority 2009, published 2012).

Counter-ions that a name gives are not always drawn.

The first test deals with T1, S1P1 receptor (S1P1 expressing RH7777 membranes) (Homo sapiens, UniProt P21453).
T1 construct: expressed in transfected cells; host or cells: RH7777 cells (membranes)
T1 sequence (P21453 whole entry): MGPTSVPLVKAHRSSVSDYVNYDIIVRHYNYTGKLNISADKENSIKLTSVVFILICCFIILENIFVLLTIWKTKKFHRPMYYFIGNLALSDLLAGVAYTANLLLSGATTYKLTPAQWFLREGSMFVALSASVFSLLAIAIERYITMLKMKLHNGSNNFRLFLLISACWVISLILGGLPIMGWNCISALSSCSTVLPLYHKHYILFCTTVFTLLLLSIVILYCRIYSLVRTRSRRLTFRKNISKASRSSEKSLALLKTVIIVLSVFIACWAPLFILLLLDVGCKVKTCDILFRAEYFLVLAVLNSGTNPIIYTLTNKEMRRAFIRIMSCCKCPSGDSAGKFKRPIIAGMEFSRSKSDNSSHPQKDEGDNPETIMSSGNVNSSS
Kind of test: S1P1 GTPγS assay. The test is classed as biochemical. Conditions: S1P1 GTPγS assay, first format, [35S]-GTPγS 0.5 nM. Here is the method: The potencies and efficacies of the compounds of this invention for the S1P1 receptor can be determined by GTPγS assay performed on the human cloned receptor as described herein.
Membrane preparation for S1P1 GTPγS assay
All steps were performed at 4° C. Cells were homogenised within a glass Waring blender for 2 bursts of 15 secs in 200 mls of buffer (50 mM HEPES, 1 mM leupeptin, 25 μg/ml bacitracin, 1 mM EDTA, 1 mM PMSF, 2 μM pepstatin A). The blender was plunged into ice for 5 mins after the first burst and 10-40 mins after the final burst to allow foam to dissipate. The material was then spun at 500 g for 20 mins and the supernatant spun for 36 mins at 48,000 g. The pellet was resuspended in the same buffer as above but without PMSF and pepstatin A. The material was then forced through a 0.6 mm needle, made up to the required volume, (usually x4 the volume of the original cell pellet), aliquoted and stored frozen at −80° C.
S1P1 expressing RH7777 membranes (1.5 μg/well) membranes (1.5 μg/well) were homogenised by passing through a 23 G needle. These were then adhered to WGA-coated SPA beads (0.125 mg/well) in assay buffer (HEPES 20 mM, MgCl2 10 mM, NaCl 100 mM and pH adjusted to 7.4 using KOH 5M). GDP 10 μM FAC and saponin 90 μg/ml FAC were also added
After 30 minutes precoupling on ice, the bead and membrane suspension was dispensed into white Greiner polypropylene LV 384-well plates (5 μl/well), containing […] of compound. 5 μl/well [^35S]-GTPγS (0.5 nM for S1P1 or 0.3 nM for S1P3 final radioligand concentration) made in assay buffer was then added to the plates. The final assay cocktail (10.1 μl) was then sealed, spun on a centrifuge, then read immediately on a Viewlux instrument.
Alternatively, after 30 minutes precoupling on ice, the bead and membrane suspension was mixed with ^35S]-GTPγS (0.5 nM final radioligand concentration) in assay buffer (HEPES 20 mM, MgCl2 10 mM, NaCl 100 mM and pH adjusted to 7.4 using KOH 5M) in a 1:1 ratio. The bead, membrane and radioligand suspension was dispensed into white Greiner polypropylene low volume 384-well plates (10 μl/well), containing 0.1 μl of a solution of test compound in 100% DMSO. The final assay cocktail (10.1 μl) was then sealed, spun on a centrifuge, then read immediately on a Viewlux instrument.
On the technique in general: GTPγS is a poorly hydrolysed GTP analogue; its binding reports G protein activation.
A word on the EC50: it is the concentration that produces a half-maximal response. Lower therefore signals an effect from little substance. As for `Cc1c(-c2nnc(-c3ccc(OC(C)C)c(C#N)c3)s2)ccc2c1CCN(CC(O)CO)C2` (stereo not shown) [Example 18, 5-{5-[2-(2,3-Dihydroxypropyl)-5-methyl-1,2,3,4-tetrahydro-6-isoquinolinyl]-1,3,4-thiadiazol-2-yl}-2-[(1-methylethyl)oxy]benzonitrile], the half-maximal effective concentration (EC50) was 2000 nM.

Staying with this test, now noted: tested in one of the above S1P1 assays (two GTPγS formats).
For `Cc1c(-c2nnc(-c3ccc(OC(C)C)c(C#N)c3)s2)ccc2c1CCN(CC(O)CO)C2` (stereo not shown) [Example 18, 5-{5-[2-(2,3-Dihydroxypropyl)-5-methyl-1,2,3,4-tetrahydro-6-isoquinolinyl]-1,3,4-thiadiazol-2-yl}-2-[(1-methylethyl)oxy]benzonitrile], the EC50 was greater than 10000 nM.

Compound `CC(C)Oc1ccc(-c2nc(-c3ccc4c(c3)CCN(C(=O)C(C)(C)N)CC4)no2)cc1C#N` [Example 117, 5-{3-[3-(2-methylalanyl)-2,3,4,5-tetrahydro-1H-3-benzazepin-7-yl]-1,2,4-oxadiazol-5-yl}-2-[(1-methylethyl)oxy]benzonitrile] showed an EC50 of no more than 1000 nM.

Turning to `CC(C)Oc1ccc(-c2nc(-c3cccc4c3CCN(CC(N)=O)CC4)no2)cc1C#N` [Example 31, 2-[6-(5-{3-Cyano-4-[(1-methylethyl)oxy]phenyl}-1,2,4-oxadiazol-3-yl)-1,2,4,5-tetrahydro-3H-3-benzazepin-3-yl]acetamide], the half-maximal effective concentration (EC50) is no more than 1000 nM.

On to `N#Cc1cc(-c2nc(-c3ccc4c(c3)CCN(CC(O)CO)CC4)no2)ccc1OC(CF)CF` (stereo not shown) [Example 60, 5-{3-[3-(2,3-dihydroxypropyl)-2,3,4,5-tetrahydro-1H-3-benzazepin-7-yl]-1,2,4-oxadiazol-5-yl}-2-{[2-fluoro-1-(fluoromethyl)ethyl]oxy}benzonitrile], for which the half-maximal effective concentration (EC50) was no more than 100 nM.

Turning to `CCCNc1ncc(-c2nc(-c3ccc4c(c3)CCN(C(CO)CO)CC4)no2)cc1C#N` [Example 150, 5-(3-{3-[2-hydroxy-1-(hydroxymethyl)ethyl]-2,3,4,5-tetrahydro-1H-3-benzazepin-7-yl}-1,2,4-oxadiazol-5-yl)-2-(propylamino)-3-pyridinecarbonitrile dihydrochloride], the 50% effective concentration (EC50) is no more than 1000 nM.

On to `CCCOc1ccc(-c2nc(-c3ccc4c(c3)CCN(C(=O)CN)CC4)no2)cc1C#N` [Example 62, 5-[3-(3-glycyl-2,3,4,5-tetrahydro-1H-3-benzazepin-7-yl)-1,2,4-oxadiazol-5-yl]-2-(propyloxy)benzonitrile], for which the concentration giving a half-maximal response (EC50) is no more than 100 nM.

The compound `CC(C)Oc1ccc(-c2nnc(-c3ccc4c(c3)CCN(CCCO)CC4)s2)cc1C#N` [Example 29, 5-{5-[3-(3-Hydroxypropyl)-2,3,4,5-tetrahydro-1H-3-benzazepin-7-yl]-1,3,4-thiadiazol-2-yl}-2-[(1-methylethyl)oxy]benzonitrile] showed an EC50 of no more than 1000 nM.

The compound `N#Cc1cc(-c2nc(-c3ccc4c(c3)CCN(C(=O)CN)CC4)no2)ccc1N1CCC(F)C1` (stereo not shown) [Example 57, 2-(3-fluoro-1-pyrrolidinyl)-5-[3-(3-glycyl-2,3,4,5-tetrahydro-1H-3-benzazepin-7-yl)-1,2,4-oxadiazol-5-yl]benzonitrile] had an EC50 of no more than 1000 nM.

As for `CC(C)Oc1ccc(-c2nc(-c3ccc4c(c3)CCN(C(=O)CN3CCOCC3)CC4)no2)cc1C#N` [Example 91, 2-[(1-methylethyl)oxy]-5-{3-[3-(4-morpholinylacetyl)-2,3,4,5-tetrahydro-1H-3-benzazepin-7-yl]-1,2,4-oxadiazol-5-yl}benzonitrile hydrochloride], the concentration for a half-maximal effect (EC50) is no more than 1000 nM.

Consider `CC(C)Oc1ccc(-c2nnc(-c3cccc4c3CCN(CCO)C4)s2)cc1C#N` [Example 38, 5-{5-[2-(2-hydroxyethyl)-1,2,3,4-tetrahydro-5-isoquinolinyl]-1,3,4-thiadiazol-2-yl}-2-[(1-methylethyl)oxy]benzonitrile], for which the EC50 is no more than 1000 nM.

`CC(C)Oc1ccc(-c2nc(-c3cccc4c3CCN(CCO)CC4)no2)cc1C#N` [Example 34, 5-{3-[3-(2-Hydroxyethyl)-2,3,4,5-tetrahydro-1H-3-benzazepin-6-yl]-1,2,4-oxadiazol-5-yl}-2-[(1-methylethyl)oxy]benzonitrile] showed a concentration for a half-maximal effect (EC50) of no more than 100 nM.

Take `CC(C)Oc1ccc(-c2nc(-c3ccc4c(c3)CCN(C(=O)[C@@H](N)[C@@H](C)O)CC4)no2)cc1C#N` [Example 59, 2-[(1-methylethyl)oxy]-5-[3-(3-L-threonyl-2,3,4,5-tetrahydro-1H-3-benzazepin-7-yl)-1,2,4-oxadiazol-5-yl]benzonitrile]: the EC50 is no more than 100 nM.

Compound `CC(C)Oc1ccc(-c2nnc(-c3ccc4c(c3)CCN(CCO)CC4)s2)cc1C#N` [Example 28, 5-{5-[3-(2-Hydroxyethyl)-2,3,4,5-tetrahydro-1H-3-benzazepin-7-yl]-1,3,4-thiadiazol-2-yl}-2-[(1-methylethyl)oxy]benzonitrile hydrochloride] showed an EC50 of no more than 1000 nM.

`CCCNc1ncc(-c2nc(-c3ccc4c(c3C)CCN(C[C@H](O)CO)CC4)no2)cc1C#N` [Example 145, 5-(3-{34[(2S)-2,3-dihydroxypropyl]-6-methyl-2,3,4,5-tetrahydro-1H-3-benzazepin-7-yl}-1,2,4-oxadiazol-5-yl)-2-(propylamino)-3-pyridinecarbonitrile] showed a half-maximal effective concentration (EC50) of no more than 1000 nM.

`CC(C)Oc1ccc(-c2nc(-c3ccc4c(c3)CCN(C(=O)[C@](C)(N)CO)CC4)no2)cc1C#N` [Example 84, 2-[(1-methylethyl)oxy]-5-{3-[3-(2-methyl-D-seryl)-2,3,4,5-tetrahydro-1H-3-benzazepin-7-yl]-1,2,4-oxadiazol-5-yl}benzonitrile] had an EC50 of no more than 1000 nM.

`N#Cc1cc(-c2nc(-c3ccc4c(c3)CCN(C(=O)CN)CC4)no2)ccc1N1CC(F)C1` [Example 94, 2-(3-fluoro-1-azetidinyl)-5-[3-(3-glycyl-2,3,4,5-tetrahydro-1H-3-benzazepin-7-yl)-1,2,4-oxadiazol-5-yl]benzonitrile] showed an EC50 of no more than 1000 nM.

With `COC(=O)NCCCN1CCc2ccc(-c3noc(-c4ccc(OC(C)C)c(C#N)c4)n3)cc2CC1` [Example 102, methyl {3-[7-(5-{3-cyano-4-[(1-methylethyl)oxy]phenyl}-1,2,4-oxadiazol-3-yl)-1,2,4,5-tetrahydro-3H-3-benzazepin-3-yl]propyl}carbamate], the EC50 is no more than 1000 nM.

Take `CNC(=O)CCCN1CCc2c(ccc(-c3nnc(-c4ccc(OC(C)C)c(C#N)c4)s3)c2C)C1` [Example 14, 4-[6-(5-{3-Cyano-4-[(1-methylethyl)oxy]phenyl}-1,3,4-thiadiazol-2-yl)-5-methyl-3,4-dihydro-2(1H)-isoquinolinyl]-N-methylbutanamide]: the concentration for a half-maximal effect (EC50) was no more than 1000 nM.

`CC(C)Oc1ccc(-c2nc(-c3ccc4c(c3)CCN(CC(O)CO)CC4)no2)cc1C#N` (stereo not shown) [Example 27, 5-{3-[3-(2,3-Dihydroxypropyl)-2,3,4,5-tetrahydro-1H-3-benzazepin-7-yl]-1,2,4-oxadiazol-5-yl}-2-[(1-methylethyl)oxy]benzonitrile] had an EC50 of no more than 100 nM.

Take `CC(C)Nc1ccc(-c2nc(-c3ccc4c(c3)CCN(CC(O)CO)CC4)no2)cc1C#N` (stereo not shown) [Example 49, 5-{3-[3-(2,3-dihydroxypropyl)-2,3,4,5-tetrahydro-1H-3-benzazepin-7-yl]-1,2,4-oxadiazol-5-yl}-2-[(1-methylethyl)amino]benzonitrile]: the EC50 was no more than 100 nM.

Compound `CC(C)Nc1ccc(-c2nc(-c3ccc4c(c3)CCN(C(=O)CN)CC4)no2)cc1C#N` [Example 52, 5-[3-(3-glycyl-2,3,4,5-tetrahydro-1H-3-benzazepin-7-yl)-1,2,4-oxadiazol-5-yl]-2-[(1-methylethyl)amino]benzonitrile] gave an EC50 of no more than 100 nM.

Turning to `CC(C)Oc1ccc(-c2nc(-c3ccc4c(c3)CCN(CCCO)CC4)no2)cc1C#N` [Example 20, 5-{3-[3-(3-Hydroxypropyl)-2,3,4,5-tetrahydro-1H-3-benzazepin-7-yl]-1,2,4-oxadiazol-5-yl}-2-[(1-methylethyl)oxy]benzonitrile], the EC50 is no more than 100 nM.

`CCCOc1ncc(-c2nc(-c3ccc4c(c3)CCN(C(=O)CN)CC4)no2)cc1C#N` [Example 107, 5-[3-(3-glycyl-2,3,4,5-tetrahydro-1H-3-benzazepin-7-yl)-1,2,4-oxadiazol-5-yl]-2-(propyloxy)-3-pyridinecarbonitrile] had an EC50 of no more than 1000 nM.

Take `CNCCCC(=O)N1CCc2ccc(-c3noc(-c4ccc(OC(C)C)c(C#N)c4)n3)cc2CC1` [Example 83, 5-(3-{3-[4-(methylamino)butanoyl]-2,3,4,5-tetrahydro-1H-3-benzazepin-7-yl}-1,2,4-oxadiazol-5-yl)-2-[(1-methylethyl)oxy]benzonitrile]: the half-maximal effective concentration (EC50) was no more than 1000 nM.
